The text below walks through data of patent publication US20250163054A1, “SUBSTITUTED BICYCLIC HETEROARYL COMPOUNDS USEFUL AS INHIBITORS OF TLR9” (Bristol-Myers Squibb Company, priority 2022, published 2025).

What all share (format): cell-based
One assay deals with T1, human TLR9 (Homo sapiens, UniProt Q9NR96).
T1 construct: host or cells: HEK-Blue cells (HEK293-derived reporter line)
T1 sequence (Q9NR96 26-1032): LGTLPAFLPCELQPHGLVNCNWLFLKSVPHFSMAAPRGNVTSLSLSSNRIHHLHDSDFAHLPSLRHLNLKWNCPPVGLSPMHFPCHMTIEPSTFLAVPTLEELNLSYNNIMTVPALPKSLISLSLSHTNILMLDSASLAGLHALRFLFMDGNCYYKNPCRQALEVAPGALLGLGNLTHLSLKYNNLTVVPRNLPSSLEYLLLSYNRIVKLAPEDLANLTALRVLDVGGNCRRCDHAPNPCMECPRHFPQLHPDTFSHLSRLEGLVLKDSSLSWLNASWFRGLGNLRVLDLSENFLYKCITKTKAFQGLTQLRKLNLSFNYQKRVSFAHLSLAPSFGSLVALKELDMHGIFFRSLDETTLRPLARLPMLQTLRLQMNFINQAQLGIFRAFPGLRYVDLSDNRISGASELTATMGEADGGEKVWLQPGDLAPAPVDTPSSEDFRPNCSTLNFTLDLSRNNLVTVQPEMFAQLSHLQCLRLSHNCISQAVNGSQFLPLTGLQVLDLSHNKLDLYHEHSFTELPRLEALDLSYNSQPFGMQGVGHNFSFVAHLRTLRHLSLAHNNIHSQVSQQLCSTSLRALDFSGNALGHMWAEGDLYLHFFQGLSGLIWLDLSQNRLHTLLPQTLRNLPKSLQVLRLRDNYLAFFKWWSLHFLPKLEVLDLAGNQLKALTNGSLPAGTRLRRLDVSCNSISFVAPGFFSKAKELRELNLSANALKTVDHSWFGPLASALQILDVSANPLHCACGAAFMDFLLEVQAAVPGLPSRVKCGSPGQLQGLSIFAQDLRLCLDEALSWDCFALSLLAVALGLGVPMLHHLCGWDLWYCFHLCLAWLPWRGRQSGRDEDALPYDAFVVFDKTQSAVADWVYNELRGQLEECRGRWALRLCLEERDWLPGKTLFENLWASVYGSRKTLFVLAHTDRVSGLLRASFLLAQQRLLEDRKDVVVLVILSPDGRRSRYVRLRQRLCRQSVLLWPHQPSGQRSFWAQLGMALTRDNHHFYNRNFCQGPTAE
The assay can be described thus: TLR7/8/9 Inhibition Reporter Assays (TLR9). The following applies: HEK-Blue cells overexpressing human TLR9, SEAP reporter, stimulated with TLR9 ligand ODN2006. In short, it runs like this: (§1)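 HEK-Blue cells overexpressing human TLR7, TLR8 or TLR9 with NF-κB/AP-1-driven SEAP reporter, pre-treated 60 min with compound ([…]). Stimulated with […] (TLR7), […] (TLR8) or ODN2006 200 nM (TLR9), then 22 h at 37° C; SEAP measured, % inhibition relative to agonist-plus-DMSO and known-inhibitor wells.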
(In general: In a reporter assay the amount or activity of a reporter protein is the signal.)

The target of the next assay is T2, human TLR7 (Homo sapiens, UniProt Q9NYK1).
T2 construct: host or cells: HEK-Blue cells (HEK293-derived reporter line)
T2 sequence (Q9NYK1 27-1049): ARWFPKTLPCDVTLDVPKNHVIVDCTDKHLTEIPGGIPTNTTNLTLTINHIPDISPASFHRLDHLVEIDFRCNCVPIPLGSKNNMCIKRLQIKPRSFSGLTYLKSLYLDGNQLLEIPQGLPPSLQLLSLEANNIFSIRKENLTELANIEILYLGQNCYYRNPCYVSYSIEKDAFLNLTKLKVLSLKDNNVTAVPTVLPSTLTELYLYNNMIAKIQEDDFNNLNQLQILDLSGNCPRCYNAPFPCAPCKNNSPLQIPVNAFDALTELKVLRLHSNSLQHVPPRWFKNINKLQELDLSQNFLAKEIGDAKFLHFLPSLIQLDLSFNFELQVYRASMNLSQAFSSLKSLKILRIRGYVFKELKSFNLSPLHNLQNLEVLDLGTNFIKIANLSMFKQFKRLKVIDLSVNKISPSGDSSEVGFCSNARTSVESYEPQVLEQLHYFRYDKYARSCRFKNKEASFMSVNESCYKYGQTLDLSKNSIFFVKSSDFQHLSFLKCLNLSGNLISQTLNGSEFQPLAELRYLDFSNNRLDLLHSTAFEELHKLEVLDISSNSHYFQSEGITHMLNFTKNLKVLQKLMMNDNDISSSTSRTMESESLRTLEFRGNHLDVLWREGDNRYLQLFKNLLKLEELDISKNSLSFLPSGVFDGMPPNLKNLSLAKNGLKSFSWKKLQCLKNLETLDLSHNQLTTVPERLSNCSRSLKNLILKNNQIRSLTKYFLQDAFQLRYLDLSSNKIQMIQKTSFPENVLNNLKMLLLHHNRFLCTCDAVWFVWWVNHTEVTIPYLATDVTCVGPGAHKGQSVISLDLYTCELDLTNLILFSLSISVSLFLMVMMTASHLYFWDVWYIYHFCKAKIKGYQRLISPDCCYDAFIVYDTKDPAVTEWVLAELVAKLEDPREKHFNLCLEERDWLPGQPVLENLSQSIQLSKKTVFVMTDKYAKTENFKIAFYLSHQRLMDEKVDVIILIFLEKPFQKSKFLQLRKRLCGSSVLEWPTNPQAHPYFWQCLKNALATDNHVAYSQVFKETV
The assay can be described thus: TLR7/8/9 Inhibition Reporter Assays (TLR7). The following applies: HEK-Blue cells overexpressing human TLR7, SEAP reporter, stimulated with TLR7 ligand gardiquimod. In short, it runs like this:
as §1

Another assay addresses T3, human TLR8 (Homo sapiens, UniProt Q9NR97).
T3 construct: host or cells: HEK-Blue cells (HEK293-derived reporter line)
T3 sequence (Q9NR97 27-1041): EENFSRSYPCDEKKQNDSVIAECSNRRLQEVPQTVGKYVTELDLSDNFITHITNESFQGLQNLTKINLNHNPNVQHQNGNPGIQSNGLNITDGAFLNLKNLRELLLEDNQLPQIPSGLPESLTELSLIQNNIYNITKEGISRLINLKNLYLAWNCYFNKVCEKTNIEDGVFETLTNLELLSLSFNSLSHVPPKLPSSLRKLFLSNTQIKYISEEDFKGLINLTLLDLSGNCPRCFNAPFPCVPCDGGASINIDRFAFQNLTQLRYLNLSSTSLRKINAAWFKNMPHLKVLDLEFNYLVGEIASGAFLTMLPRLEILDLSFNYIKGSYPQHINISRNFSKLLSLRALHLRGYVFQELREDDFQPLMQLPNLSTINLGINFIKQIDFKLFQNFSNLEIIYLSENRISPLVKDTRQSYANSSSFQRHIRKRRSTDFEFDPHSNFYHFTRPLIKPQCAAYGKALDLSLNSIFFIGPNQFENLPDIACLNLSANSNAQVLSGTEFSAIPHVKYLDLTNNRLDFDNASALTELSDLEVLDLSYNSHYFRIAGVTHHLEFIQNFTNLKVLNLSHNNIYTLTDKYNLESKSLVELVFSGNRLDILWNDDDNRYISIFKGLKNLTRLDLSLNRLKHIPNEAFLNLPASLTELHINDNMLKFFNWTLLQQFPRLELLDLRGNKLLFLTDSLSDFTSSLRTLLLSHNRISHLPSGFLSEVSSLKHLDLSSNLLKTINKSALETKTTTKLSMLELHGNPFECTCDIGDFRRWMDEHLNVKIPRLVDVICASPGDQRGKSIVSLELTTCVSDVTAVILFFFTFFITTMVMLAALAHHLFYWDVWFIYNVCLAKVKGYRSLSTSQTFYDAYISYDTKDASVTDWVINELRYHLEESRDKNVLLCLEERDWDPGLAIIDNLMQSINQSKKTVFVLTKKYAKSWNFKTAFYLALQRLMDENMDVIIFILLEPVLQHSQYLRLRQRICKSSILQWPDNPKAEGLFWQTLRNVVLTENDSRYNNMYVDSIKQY
Nature of the assay: TLR7/8/9 Inhibition Reporter Assays (TLR8). The following applies: HEK-Blue cells overexpressing human TLR8, SEAP reporter, stimulated with TLR8 ligand R848. In a few lines: as §1

As usually defined, the IC50 is the concentration needed to halve the response being measured. A high value points to lower potency.

For `Cc1nc(-c2ccc(N3CCC(N4CCCC4)CC3)cc2F)cc2c1nc(-c1ccc(S(C)(=O)=O)cc1)n2C` [Example 43, 6-(2-fluoro-4-(4-(pyrrolidin-1-yl)piperidin-1-yl)phenyl)-1,4-dimethyl-2-(4-(methylsulfonyl)phenyl)-1H-imidazo[4,5-c]pyridine], the IC50 at human TLR9 was found to be 0.29 µM; against human TLR7, 3.9 µM; on human TLR8, 2.3 µM.

As for `COc1cc(-c2nc3c(C)nc(-c4ccc(N5CCN(C6CCC6)CC5)cc4)cc3n2C)cn2ncnc12` [Example 12, 6-(6-(4-(4-cyclobutylpiperazin-1-yl)phenyl)-1,4-dimethyl-1H-imidazo[4,5-c]pyridin-2-yl)-8-methoxy-[1,2,4]triazolo[1,5-a]pyridine], the IC50 was 0.63 µM against human TLR9, 1.5 µM against human TLR7 and greater than 50 µM against human TLR8.

Turning to `Cc1nc(-c2ccc(N3C[C@H]4CN(CC(C)C)C[C@H]4C3)cc2)cc2c1nc(-c1ccc(S(C)(=O)=O)cc1)n2C` [Example 68, 6-(4-((3aR,6aS)-5-isobutylhexahydropyrrolo[3,4-c]pyrrol-2(1H)-yl)phenyl)-1,4-dimethyl-2-(4-(methylsulfonyl)phenyl)-1H-imidazo[4,5-c]pyridine], the IC50 on human TLR9 worked out at 0.032 µM; at human TLR7 it was 2 µM; against human TLR8 it was 3.1 µM.

On to `Cc1nc(-c2ccc(CCN3CCC(N4CCOCC4)CC3)cc2)cc2c1nc(-c1ccc(S(C)(=O)=O)cc1)n2C` [Example 53, 4-(1-(4-(1,4-dimethyl-2-(4-(methylsulfonyl)phenyl)-1H-imidazo[4,5-c]pyridin-6-yl)phenethyl)piperidin-4-yl) morpholine], for which the IC50 is 0.074 µM at human TLR9, 3.1 µM on human TLR7 and 7.6 µM on human TLR8.

Regarding `COc1cc(-c2nc3c(C)nc(-c4ccc(N5CCN(CC6CC6)CC5)cc4)cc3n2C)cn2ncnc12` [Example 11, 6-(6-(4-(4-(cyclopropylmethyl)piperazin-1-yl)phenyl)-1,4-dimethyl-1H-imidazo[4,5-c]pyridin-2-yl)-8-methoxy-[1,2,4]triazolo[1,5-a]pyridine], the IC50 on human TLR9 was 0.42 µM; at human TLR7, 1.1 µM; against human TLR8 it was greater than 50 µM.

For the compound `CC(C)N1CC2(CCN(c3ccc(-c4cc5c(cn4)nc(-c4ccc(S(C)(=O)=O)cc4)n5C)cc3)CC2)C1` [Example 95, 6-(4-(2-isopropyl-2,7-diazaspiro[3.5]nonan-7-yl)phenyl)-1-methyl-2-(4-(methylsulfonyl)phenyl)-1H-imidazo[4,5-c]pyridine], the concentration for half-maximal inhibition (IC50) against human TLR9 was 0.35 µM; against human TLR7, 2.1 µM; on human TLR8, 0.89 µM.

As for `CC(C)N1CC2(CN(c3ccc(-c4cc5c(cn4)nc(-c4ccc(S(C)(=O)=O)cc4)n5C4CC4)cc3)C2)C1` [Example 89, 1-cyclopropyl-6-(4-(6-isopropyl-2,6-diazaspiro[3.3]heptan-2-yl)phenyl)-2-(4-(methylsulfonyl)phenyl)-1H-imidazo[4,5-c]pyridine], the IC50 came to 0.42 µM on human TLR9, 1.9 µM against human TLR7 and 4.5 µM against human TLR8.

For `Cc1nc(-c2ccc(N3CCC4(CC3)CN(CC(C)(C)O)C4)cc2)cc2c1nc(-c1ccc(S(C)(=O)=O)cc1)n2C` [Example 91, 1-(7-(4-(1,4-dimethyl-2-(4-(methylsulfonyl)phenyl)-1H-imidazo[4,5-c]pyridin-6-yl)phenyl)-2,7-diazaspiro[3.5]nonan-2-yl)-2-methylpropan-2-ol], the IC50 against human TLR9 turned out to be 0.17 µM; on human TLR7 it was 5.5 µM; on human TLR8, 6.8 µM.

With `COc1ccc(-c2nc3c(C)nc(-c4ccc(N5CC6(C5)CN(C(C)C)C6)cc4)cc3n2C)cc1OC` [Example 76, 2-(3,4-dimethoxyphenyl)-6-(4-(6-isopropyl-2,6-diazaspiro[3.3]heptan-2-yl)phenyl)-1,4-dimethyl-1H-imidazo[4,5-c]pyridine], the IC50 stood at 0.023 µM at human TLR9, 1.8 µM against human TLR7 and 3.6 µM against human TLR8.

In the case of `COc1ccc(-c2nc3cnc(-c4ccc(N5CCC6(CC5)CN(C(C)C)C6)cc4)cc3n2C2CC2)cc1OC` [Example 83, 1-cyclopropyl-2-(3,4-dimethoxyphenyl)-6-(4-(2-isopropyl-2,7-diazaspiro[3.5]nonan-7-yl)phenyl)-1H-imidazo[4,5-c]pyridine], the figures for the IC50 at human TLR9, at human TLR7 and at human TLR8 were 0.34 µM, 1.8 µM and 12 µM, respectively.

On to `Cc1nc(-c2ccc(N3CCC4(CC3)CN(C(C)C)C4)cc2)cc2c1nc(-c1ccc(S(C)(=O)=O)cc1)n2C` [Example 72, 6-(4-(2-isopropyl-2,7-diazaspiro[3.5]nonan-7-yl)phenyl)-1,4-dimethyl-2-(4-(methylsulfonyl)phenyl)-1H-imidazo[4,5-c]pyridine], for which the IC50 was found to be 0.16 µM at human TLR9, 0.65 µM against human TLR7 and 6 µM against human TLR8.
